Test results from PMC8770593 (Nature Communications, 2022).
Numbering of substitutions follows the chain as printed. Where “and” joins values, the source holds several entries; their conditions need not be identical. Equal entries are not always repeated. Where two headings read alike, the source gives them in different places.

Assays:
[1] = tested on: stabilized α1BAR mutant with L334 and L334F back-mutant; details: saturation binding, whole E. coli cells, L334 vs L334F back-mutant
[2] = target: T1, α1BAR S150^34.50→Y (Homo sapiens, UniProt P35368, S150Y); assay: Agonist-induced IP1 accumulation (Gq signaling, HTRF IP-One) in transfected HEK293T/17 cells; assay type: cell-based
T1 construct: harboring the wild-type helix 8 and the full-length C-terminus as well as the entire ICL3; expressed in transfected cells; host or cells: HEK293T/17
T1 sequence (P35368 whole entry S150Y): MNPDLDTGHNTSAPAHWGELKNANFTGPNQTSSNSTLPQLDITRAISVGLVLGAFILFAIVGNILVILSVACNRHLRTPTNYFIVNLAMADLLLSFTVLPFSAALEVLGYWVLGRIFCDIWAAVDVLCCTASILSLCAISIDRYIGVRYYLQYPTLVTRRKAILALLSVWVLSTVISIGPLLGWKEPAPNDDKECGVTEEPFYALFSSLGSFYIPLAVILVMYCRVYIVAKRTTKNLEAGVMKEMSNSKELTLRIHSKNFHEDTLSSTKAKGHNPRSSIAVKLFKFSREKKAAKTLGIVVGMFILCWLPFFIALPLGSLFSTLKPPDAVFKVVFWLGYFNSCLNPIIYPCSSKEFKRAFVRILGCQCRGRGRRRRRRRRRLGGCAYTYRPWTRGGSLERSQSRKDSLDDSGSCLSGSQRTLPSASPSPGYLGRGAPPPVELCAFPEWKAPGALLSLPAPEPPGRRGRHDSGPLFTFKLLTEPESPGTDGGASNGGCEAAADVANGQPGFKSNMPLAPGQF
Experimental: (§1) Signaling assays were performed with receptor constructs harboring the wild-type helix 8 and the full-length C-terminus as well as the entire ICL3. Agonist-induced IP1 accumulation was measured in transiently transfected HEK293T/17 cells, as described before. Twenty-four hours after transfection, cells were washed with phosphate-buffered saline (PBS), detached with trypsin-EDTA (Sigma), and resuspended in assay buffer (10 mM HEPES pH 7.4, 1 mM CaCl2, 0.5 mM MgCl2, 4.2 mM KCl, 146 mM NaCl, 50 mM LiCl, 5.5 mM glucose, 0.1% (w/v) BSA). […] IP1 accumulation was measured using the HTRF IP-One kit (Cisbio) according to the manufacturer’s protocol on a SPARK fluorescence plate reader (Tecan).

[3] = target: T2, α1BAR G183^4.63→V (Homo sapiens, UniProt P35368, G183V); assay: as above; assay type: cell-based
T2 construct: harboring the wild-type helix 8 and the full-length C-terminus as well as the entire ICL3; expressed in transfected cells; host or cells: HEK293T/17
T2 sequence (P35368 whole entry G183V): as the sequence (P35368 whole entry S150Y) above, with Y150S, G183V counted along it
Experimental: as §1

[4] = target: T3, α1BAR S95^2.54→C (Homo sapiens, UniProt P35368, S95C); assay: as above; assay type: cell-based; details: for IP1 concentration: S95C, listed as PE
T3 construct: harboring the wild-type helix 8 and the full-length C-terminus as well as the entire ICL3; expressed in transfected cells; host or cells: HEK293T/17
T3 sequence (P35368 1-520 S95C): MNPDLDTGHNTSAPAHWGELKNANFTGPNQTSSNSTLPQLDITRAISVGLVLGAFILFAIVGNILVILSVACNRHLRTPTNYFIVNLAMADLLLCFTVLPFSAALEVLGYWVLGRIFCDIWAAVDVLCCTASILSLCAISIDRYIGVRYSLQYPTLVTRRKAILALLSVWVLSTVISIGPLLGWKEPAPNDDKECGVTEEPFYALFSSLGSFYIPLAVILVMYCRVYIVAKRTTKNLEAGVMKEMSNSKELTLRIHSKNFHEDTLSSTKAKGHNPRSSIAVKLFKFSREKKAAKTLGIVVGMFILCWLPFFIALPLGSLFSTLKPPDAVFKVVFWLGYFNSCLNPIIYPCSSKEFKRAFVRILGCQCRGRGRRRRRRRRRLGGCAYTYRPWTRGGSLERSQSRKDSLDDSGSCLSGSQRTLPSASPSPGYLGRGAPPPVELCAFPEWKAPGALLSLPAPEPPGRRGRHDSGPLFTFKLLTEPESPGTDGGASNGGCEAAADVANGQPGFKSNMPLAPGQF
Experimental: (§2) Signaling assays were performed with receptor constructs harboring the wild-type helix 8 and the full-length C-terminus as well as the entire ICL3. Agonist-induced IP1 accumulation was measured in transiently transfected HEK293T/17 cells, as described before. […] IP1 accumulation was measured using the HTRF IP-One kit (Cisbio) according to the manufacturer’s protocol on a SPARK fluorescence plate reader (Tecan).

[5] = target: T4, α1BAR V124^3.31→M (Homo sapiens, UniProt P35368, V124M); assay: as above; assay type: cell-based
T4 construct: harboring the wild-type helix 8 and the full-length C-terminus as well as the entire ICL3; expressed in transfected cells; host or cells: HEK293T/17
T4 sequence (P35368 whole entry V124M): as the sequence (P35368 whole entry S150Y) above, with V124M, Y150S counted along it
Experimental: as §2

[6] = target: T5, α1BAR V333^7.38→L (Homo sapiens, UniProt P35368, V333L); assay: as above; assay type: cell-based
T5 construct: harboring the wild-type helix 8 and the full-length C-terminus as well as the entire ICL3; expressed in transfected cells; host or cells: HEK293T/17
T5 sequence (P35368 whole entry V333L): as the sequence (P35368 whole entry S150Y) above, with Y150S, V333L counted along it
Experimental: as §2

[7] = target: T6, α1BAR P349^7.54→L (Homo sapiens, UniProt P35368, P349L); assay: as above; assay type: cell-based
T6 construct: receptor constructs harboring the wild-type helix 8 and the full-length C-terminus as well as the entire ICL3; expressed in transfected cells; host or cells: HEK293T/17
T6 sequence (P35368 whole entry P349L): as the sequence (P35368 whole entry S150Y) above, with Y150S, P349L counted along it
Experimental: as §2

[8] = target: T7, α1BAR T295^6.36→M (Homo sapiens, UniProt P35368, T295M); assay: as above; assay type: cell-based
T7 construct: harboring the wild-type helix 8 and the full-length C-terminus as well as the entire ICL3; expressed in transfected cells; host or cells: HEK293T/17
T7 sequence (P35368 whole entry T295M): as the sequence (P35368 whole entry S150Y) above, with Y150S, T295M counted along it
Experimental: as §2

[9] = target: T8, α1BAR E194^ECL2→V (Homo sapiens, UniProt P35368, E194V); assay: as above; assay type: cell-based
T8 construct: harboring the wild-type helix 8 and the full-length C-terminus as well as the entire ICL3; expressed in transfected cells; host or cells: HEK293T/17
T8 sequence (P35368 whole entry E194V): as the sequence (P35368 whole entry S150Y) above, with Y150S, E194V counted along it
Experimental: as §2

[10] = target: T9, α1BAR D191^ECL2→Y (Homo sapiens, UniProt P35368, D191Y); assay: as above; assay type: cell-based; details: for IP1 concentration: D191Y, listed as PE
T9 construct: harboring the wild-type helix 8 and the full-length C-terminus as well as the entire ICL3; expressed in transfected cells; host or cells: HEK293T/17
T9 sequence (P35368 1-520 D191Y): T3 sequence (P35368 1-520 S95C) with C95S, D191Y
Experimental: as §2

[11] = target: T10, α1BAR S168^4.48→C (Homo sapiens, UniProt P35368, S168C); assay: as above; assay type: cell-based; details: for IP1 concentration: S168C, listed as PE
T10 construct: harboring the wild-type helix 8 and the full-length C-terminus as well as the entire ICL3; expressed in transfected cells; host or cells: HEK293T/17
T10 sequence (P35368 1-520 S168C): T3 sequence (P35368 1-520 S95C) with C95S, S168C
Experimental: as §2

[12] = target: T11, wild-type α1BAR (Homo sapiens, UniProt P35368); assay: as above; assay type: cell-based; details: reference construct
T11 construct: harboring the wild-type helix 8 and the full-length C-terminus as well as the entire ICL3; expressed in transfected cells; host or cells: HEK293T/17
T11 sequence (P35368 whole entry): as the sequence (P35368 whole entry S150Y) above, with Y150S counted along it
Experimental: as §2

[13] = target: T12, α1BAR I116^3.23→T (Homo sapiens, UniProt P35368, I116T); assay: as above; assay type: cell-based
T12 construct: harboring the wild-type helix 8 and the full-length C-terminus as well as the entire ICL3; expressed in transfected cells; host or cells: HEK293T/17
T12 sequence (P35368 whole entry I116T): as the sequence (P35368 whole entry S150Y) above, with I116T, Y150S counted along it
Experimental: as §2

[14] = tested on: α1BAR expressed in E. coli; set-up: method as in ref Schuster, M. et al., Biochim. Biophys. Acta Biomembr. 1862, 183354 (2020); details: ref Schuster, M. et al., Biochim. Biophys. Acta Biomembr. 1862, 183354 (2020), read-out: affinity; cited from earlier work
[15] = tested on: α1BAR expressed in mammalian cells; details: ref Docherty, J. R., Eur. J. Pharmacol. 855, 305-320 (2019), cited from earlier work; for Kd: α1BAR expressed in mammalian cells

## COc1cc2nc(N3CCN(C(=O)c4ccco4)CC3)nc(N)c2cc1OC [3H-prazosin]
[1]
  impact of the L334/F334 mutation on affinity: only a minor impact

## CNC[C@H](O)c1cccc(O)c1 [Phenylephrine]
[2]
  Emax: 13.4 ± 1.7%
[3]
  Emax: 9 ± 18.5%
[4]; HEK293T/17, IP1 accumulation
  Emax: 71.9 ± 5.7%
[4]; [PE] -4 log M
  IP1 concentration: 377.435 and 437.765 and 593.664 and 690.124 and 481.642 and 456.558
[4]; [PE] -4.69897 log M
  IP1 concentration: 323.191 and 422.658 and 500.281 and 586.924 and 403.917 and 432.8
[4]; [PE] -5.39794 log M
  IP1 concentration: 269.373 and 257.6 and 377.64 and 428.644 and 333.33 and 361.512
[5]
  Emax: 84.2 ± 6.3%
[6]
  Emax: 79.8 ± 5.2%
[7]
  Emax: 27.3 ± 4.1%
[8]
  Emax: 50.7 ± 5.9%
[9]; E194V, [PE] -4 log M, listed as PE
  IP1 concentration: 499.282 and 565.119 and 803.974 and 817.17 and 667.593 and 781.933
[9]; HEK293T/17, IP1 accumulation
  Emax: 85.4 ± 7.4%
[10]; [PE] -4 log M
  IP1 concentration: 519.698 and 441.949 and 662.352 and 730.409 and 630.141 and 710.683
[10]; [PE] -4.69897 log M
  IP1 concentration: 370.913 and 393.347 and 353.075 and 528.612 and 529.351 and 631.077
[10]; [PE] -5.39794 log M
  IP1 concentration: 322.315 and 263.99 and 343.654 and 369.218 and 447.164 and 499.2
[10]; HEK293T/17, IP1 accumulation
  Emax: 89.6 ± 4.7%
[11]; HEK293T/17, IP1 accumulation
  Emax: 96.8 ± 8%
[11]; [PE] -4 log M
  IP1 concentration: 678.88 and 634.809 and 694.6 and 789.857 and 654.693 and 717.983
[11]; [PE] -4.69897 log M
  IP1 concentration: 546.031 and 536.624 and 592.13 and 637.69 and 619.808 and 699.597
[11]; [PE] -5.39794 log M
  IP1 concentration: 630.294 and 403.102 and 536.003 and 572.191 and 548.559 and 641.7
[11]; [PE] -6.09691 log M
  IP1 concentration: 373.984 and 293.041 and 368.158 and 357.195 and 468.9 and 570.413
[11]; [PE] -6.79588 log M
  IP1 concentration: 213.187 and 230.01 and 327.882 and 336.101 and 329.963 and 356.634
[12]
  Emax: 100%
[13]
  Emax: 71.2 ± 6.4%

## COc1cc2nc(N3CCN(C(=O)c4ccco4)CC3)nc(N)c2cc1OC [prazosin]
[14]
  Kd: 0.074 nM
[15]; radioligand binding
  affinity as pK value (RLBA): 9.26–10.3
[15]; read-out: affinity range reported in the literature
  Kd: 0.05 to 0.55 nM
[15]; read-out: mean affinity reported in the literature
  Kd: 0.11 nM
